Experimental data taken from patent US20090099191A1, “INHIBITION OF NF-KB” (priority 2006, published 2009).

Assays:
[1] = system: variety of tumor cell types; experiment: p53 activation and p53-dependent killing of tumor cell types; type: cell-based; conditions: besides RCC
DNA [2] = experiment: DNA damaging activity
NF-κB = NF-κB activity in tumor cells; type: cell-based
tumor and normal cells = experiment: Toxicity to tumor versus normal cells; type: cell-based; conditions: in vitro and in vivo
Experimental: 5×10^3 of cells were plated in 6 well plates and treated with different concentrations of drugs for 24 hours. Then fresh drug-free medium was added. Number of colonies was estimated after 5-6 days of incubation. Cell survival was estimated as a percentage of intensity of methylene blue staining of treated cells, comparing with untreated control (methylene blue from stained colonies was extracted by 0.1% of SDS and quantitated spectrophotometrically).

[3] = system: p53 transactivation in RCC45ConALacZ cells; experiment: RCC cell-based p53-responsive reporter (ConALacZ) screening
Text: Reporter cell lines with p53 responsive β-galactosidase were described in Gurova, et al. (2004). Cancer Res 64, 1951-1958. Reporter cell lines with p53 responsive luciferase was generated by transfection of p21-ConALuc plasmid with following selection on G418. Reporter cell lines with NF-κB-dependent luciferase were obtained by cotransfection of pNF-κBLuc and pEGFP-mito (Clontech) plasmids followed by selection on G418 (marker provided by pEGFP-mito plasmid). Reporter cell lines with myc, or Clock/Bmal responsive reporters were kindly provided by C. Burkhart and M. Antoch (Cleveland Clinic Foundation, OH).
2×10^4 of RCC45ConALacZ cells were plated into wells of 96 well plates in 200 μL of phenol-red free RPMI medium with standard additives. […] After 3 hours of incubation at 37° C., β-galactosidase activity was estimated by reading absorbance values Wallack 1420 plate reader (Perkin Elmer) at λ=430 nm.
For cotransfection set-up, 2×10^5 cells were plated into 6 well plates and, after overnight incubation, transfected with Lipofectamin Plus reagent (Gibco BRL) with 0.5 μg of reporter plasmids (p21-ConALuc or pNF-κBLuc) in combination with different concentrations of p53, Arf, Ss-IκB, or siHDM2 expressing plasmids. […] Luminometric and colorimetric reactions were read on the Wallack 1420 plate reader (Perkin Elmer). […]

DNA [4] = conditions: intercalation; cited from earlier work

DNA damaging activity (DNA [2])	Compound	p53-dependent killing [1]	p53 activation [1]	effect on stimulated and basal constitutive NF-κB activity (NF-κB)	toxicity to tumor versus normal cells (tumor and normal cells)	p53 reactivation relative to doxorubicin ([3]; RCC45 cells, library of 59 derivatives of compound 30d9, fold of p53 activation over the effect of 2 μM of doxorubicin (FIG. 3B))	identified as p53 activator / hit in reporter screen ([3]; RCC45ConALacZ cell-based reporter assay)	DNA binding affinity (DNA [4])
did not show DNA damaging activity	Nc1c2ccccc2nc2ccccc12 [Compound 9AA, 9-aminoacridine]	p53-dependent killing	capable of p53 activation	block stimulated NF-κB activity and also effectively reduce basal levels of constitutive NF-κB activity	more toxic to tumor than to normal cells	–	–	–
did not show DNA damaging activity	CCN(CC)CCCC(C)Nc1c2ccc(Cl)cc2nc2ccc(OC)cc12 (stereo not drawn) [Quinacrine]	p53-dependent killing	capable of p53 activation	–	more toxic to tumor than to normal cells	intermediate level of activity	–	–
–	Cc1c2ccncc2c(C)c2c1[nH]c1ccccc12 [ellipticine]	–	–	–	–	–	identified	10^6 M^−1
